What was measured:
type V adenylyl cyclase = biological target: T1, type V adenylyl cyclase (Homo sapiens, UniProt O95622); test: Adenylyl cyclase membrane assay, type V (cAMP ELISA); type: biochemical, mouse; conditions: cardiomyocyte membrane preparations from transgenic mice; forskolin 50 μM
T1 construct: from tissue; host or cells: heart (cardiomyocyte) membrane preparations from transgenic mice overproducing type V adenylyl cyclase
Protocol: (§1) Compounds were assayed for their ability to attenuate cyclic AMP (cAMP) production in cardiomyocyte membrane preparations isolated from transgenic mice. Transgenic mice were separately bred to overproduce type V adenylyl cyclase, type VI adenylyl cyclase and type II adenylyl cyclase. cAMP levels were determined using a Cyclic AMP Competitive ELISA kit purchased from ThermoFischer Scientific (Cat# EMSCAMPL).
(§2) Buffer A (pH 8) was prepared comprising final concentrations of the following: 50 mM Tris, 1 mM EGTA, 1 mM EDTA, 1 mM DTT, 100 mM sucrose, 20 μg/mL TPCK (protease inhibitor), 20 μg/mL TLCK (protease inhibitor), 1 mM PMSF (protease inhibitor), 10 μg/mL leupeptin (protease inhibitor) and 10 μg/mL aprotinin (protease inhibitor).
(§3) Buffer B (pH 8) was prepared comprising final concentrations of the following: 50 mM Tris, 1 mM EDTA, 100 mM sucrose, 0.2 mM PMSF (protease inhibitor), 2 μg/mL leupeptin (protease inhibitor) and 2 μg/mL aprotinin (protease inhibitor).
Hearts were surgically excised from transgenic mice. Each isolated heart was treated with 3-4 mL of buffer A and cooled to 0 deg C. for 5 minutes. Treated hearts were homogenized for 10 seconds using a Polytron homogenizer cooled to 0 deg C. and set to speed 6. Homogenized hearts were centrifuged at 500×g at 4 deg C. for 10 minutes. Supernatants were transferred to ultracentrifuge tubes and centrifuged at 35,000 rpm at 4 deg C. for 40 minutes. Isolated pellets were combined with buffer B (500 μL) and sonicated to a suspension. Protein concentration was determined using a commercial Bradford assay kit. Membrane preparations were stored at −80 deg C.
Buffer R (pH 8) was prepared comprising final concentrations in water of the following: HEPES (20 mM), magnesium chloride (5 mM), EDTA (0.5 mM), ATP (0.1 mM), phospho creatinine (1 mM), creatinine phosphokinase (8 units/mL), IBMX (200 μM), forskolin (50 μM) or control (DMSO in water).
Inhibitor solutions were prepared by dilution of stock solutions of inhibitors (10 mM in DMSO) to a final concentration of 100 μM in water. Serial dilutions with water were subsequently made in order to determine IC50 values.
Reaction mixtures were prepared comprising buffer R (10 μL), inhibitor or control (10 μL), and water (75 μL).
A reaction mixture was pre-incubated at 30 deg C. for 5 minutes. A membrane preparation (e.g. 5 μL for type V Adenylyl Cyclase comprising 2 μg of membrane protein per 5 μL of preparation) was added and the mixture was incubated at 30 deg C. for 15 minutes. The reaction was stopped by addition of 0.1 M hydrochloric acid (100 μL) and cooled to 0 deg C. The resulting mixture was incubated at 0 deg C. for 60 minutes. The cAMP concentration of the supernatant was measured using a Cyclic AMP Competitive ELISA kit purchased from ThermoFischer Scientific.

type VI adenylyl cyclase = biological target: T2, type VI adenylyl cyclase (Homo sapiens, UniProt O43306); test: Adenylyl cyclase membrane assay, type VI (cAMP ELISA); type: biochemical, mouse; conditions: cardiomyocyte membrane preparations from transgenic mice; forskolin 50 μM
T2 construct: from tissue; host or cells: heart (cardiomyocyte) membrane preparations from transgenic mice overproducing type VI adenylyl cyclase
T2 sequence (O43306 whole entry): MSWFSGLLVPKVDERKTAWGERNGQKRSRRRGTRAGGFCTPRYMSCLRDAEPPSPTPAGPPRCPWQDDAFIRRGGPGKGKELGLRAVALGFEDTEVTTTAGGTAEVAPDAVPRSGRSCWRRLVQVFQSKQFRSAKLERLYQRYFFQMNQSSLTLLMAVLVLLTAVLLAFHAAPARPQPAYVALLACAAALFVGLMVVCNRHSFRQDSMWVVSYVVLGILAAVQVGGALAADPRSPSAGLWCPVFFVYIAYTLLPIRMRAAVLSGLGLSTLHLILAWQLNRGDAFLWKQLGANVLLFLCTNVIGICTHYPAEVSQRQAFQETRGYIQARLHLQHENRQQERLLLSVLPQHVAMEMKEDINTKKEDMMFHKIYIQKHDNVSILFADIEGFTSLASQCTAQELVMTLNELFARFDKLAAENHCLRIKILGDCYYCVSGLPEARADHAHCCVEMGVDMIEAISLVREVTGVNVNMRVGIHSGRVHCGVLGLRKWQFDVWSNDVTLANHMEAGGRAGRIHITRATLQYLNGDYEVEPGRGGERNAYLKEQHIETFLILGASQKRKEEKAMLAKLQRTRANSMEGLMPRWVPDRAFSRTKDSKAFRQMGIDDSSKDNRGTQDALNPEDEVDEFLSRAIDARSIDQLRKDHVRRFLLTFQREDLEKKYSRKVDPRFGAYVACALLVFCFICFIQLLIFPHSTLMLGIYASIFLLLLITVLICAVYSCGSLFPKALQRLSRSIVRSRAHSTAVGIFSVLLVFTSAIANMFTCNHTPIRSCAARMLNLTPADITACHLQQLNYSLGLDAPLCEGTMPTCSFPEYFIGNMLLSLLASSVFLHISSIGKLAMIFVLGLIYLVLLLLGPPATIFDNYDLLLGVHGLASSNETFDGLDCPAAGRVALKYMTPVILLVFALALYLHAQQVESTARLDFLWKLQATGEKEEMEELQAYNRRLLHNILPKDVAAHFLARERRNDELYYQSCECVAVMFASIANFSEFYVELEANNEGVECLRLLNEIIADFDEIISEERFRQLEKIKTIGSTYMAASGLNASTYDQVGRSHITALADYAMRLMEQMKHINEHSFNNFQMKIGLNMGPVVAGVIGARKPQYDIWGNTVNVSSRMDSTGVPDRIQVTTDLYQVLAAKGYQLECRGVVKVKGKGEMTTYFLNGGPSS
Protocol: as §1, §2, §3
Hearts were surgically excised from transgenic mice. Each isolated heart was treated with 3-4 mL of buffer A and cooled to 0 deg C. for 5 minutes. Treated hearts were homogenized for 10 seconds using a Polytron homogenizer cooled to 0 deg C. and set to speed 6. Homogenized hearts were centrifuged at 500×g at 4 deg C. for 10 minutes. Supernatants were transferred to ultracentrifuge tubes and centrifuged at 35,000 rpm at 4 deg C. for 40 minutes. Isolated pellets were combined with buffer B (500 μL) and sonicated to a suspension. Protein concentration was determined using a commercial Bradford assay kit. Membrane preparations were stored at −80 deg C. […]
(§4) A reaction mixture was pre-incubated at 30 deg C. for 5 minutes. […] The cAMP concentration of the supernatant was measured using a Cyclic AMP Competitive ELISA kit purchased from ThermoFischer Scientific.

[1] = tested on: H9c2(2-1) myoblast cell line; test: Adenylyl cyclase cell-based assay, forskolin-stimulated cAMP; conditions: Rattus norvegicus; H9c2 cells, forskolin 50 μM
Protocol: (§5) H9c2(2-1) myoblast cell line was obtained from ATCC (CRL-1446). Cells (10^5 cells/mL) were seeded in 24-well plates at 5×10^4 cells per well. Cells were allowed to attach over 24 hours. The cells were then washed with PBS. Serum-free DMEM supplemented with 20 mM HEPES and 0.5 mM IBMX was added and the cells were incubated at 37 deg C. for 20 minutes. An Adenylyl Cyclase inhibitor (0.001-100 μM in DMSO/water with DMSO concentration <1%) was added and the mixture was incubated at 37 deg C. for 10 minutes. Forskolin (50 μM in DMSO/water with DMSO concentration <1%) was added and the mixture was incubated at 37 deg C. for 10 minutes. As an alternative to forskolin, isoproterenol (5 mM in DMSO/water with DMSO concentration <1%) was added and the mixture was incubated at 37 deg C. for 15 minutes. The media was removed and the cells were lysed by addition of 0.1 M hydrochloric acid (200 μL) 0 deg C. Lysed mixtures were maintained at 0 deg C. for 10-20 minutes and the plates were then centrifuged at 3,000×g for 5 minutes. cAMP levels in the supernatant were measured using the ThermoScientific cAMP competitive ELISA (EMSCAMPL) kit with samples acetylated in glass or polypropylene tubes.

[2] = tested on: H9c2(2-1) myoblast cell line; test: Adenylyl cyclase cell-based assay, isoproterenol-stimulated cAMP; conditions: Rattus norvegicus; H9c2 cells, isoproterenol 5 mM
Protocol: as §5

[3] = tested on: Mouse Ischemia and Reperfusion Model; test: Mouse ischemia and reperfusion model, infarct size; type: in vivo; conditions: mice; 30 min CAO, 24 hr CAR; i.v. infusion 0.06 mg/kg delivered at CAR; vehicle 33%
Protocol: 3-4-month-old male CS7BL/6 mice purchased from Jack-son Laboratory were anesthetized by an injection of 2% 2,2,2-tribromomethanol ([…] i.p.; Aldrich Chemical, St. Louis, Mo.). The mice were then orally intubated and mechanically ventilated. The heart was accessed via a thoracotomy at the fourth intercostals space and 7-0 silk suture passed under the left anterior descending coronary artery (LAD) at the point where it emerged from under the left atrial flap. Myocardial ischemia was achieved by occluding the LAD against a 22-gauge J-shaped stainless-steel probe and verified by visually noting the regional akinesis and blanching of the left ventricle. The chest was closed in layers, with the long end of the probe remaining outside the chest wall, allowing the animals to be removed from the ventilator. After 30 min. of ischemia, reperfusion was initiated by carefully pulling the probe out from the ligature and then removing it from the chest cavity. Following the surgical procedure, the mice were allowed to recover on a warmed surface, with supplemental oxygen delivered from a nose cone. I/R were verified by three lead electrocardiograms, which were obtained preoperatively, at the end of the ischemic interval and immediately after the initiation of reperfusion. Mice fully recovered from the surgical procedure were returned to standard animal housing conditions. […]

type II adenylyl cyclase = biological target: T3, type II adenylyl cyclase (Homo sapiens, UniProt Q08462); test: Adenylyl cyclase membrane assay, type II (cAMP ELISA); type: biochemical, mouse; conditions: cardiomyocyte membrane preparations from transgenic mice; forskolin 50 μM
T3 construct: from tissue; host or cells: heart (cardiomyocyte) membrane preparations from transgenic mice overproducing type II adenylyl cyclase
T3 sequence (Q08462 whole entry): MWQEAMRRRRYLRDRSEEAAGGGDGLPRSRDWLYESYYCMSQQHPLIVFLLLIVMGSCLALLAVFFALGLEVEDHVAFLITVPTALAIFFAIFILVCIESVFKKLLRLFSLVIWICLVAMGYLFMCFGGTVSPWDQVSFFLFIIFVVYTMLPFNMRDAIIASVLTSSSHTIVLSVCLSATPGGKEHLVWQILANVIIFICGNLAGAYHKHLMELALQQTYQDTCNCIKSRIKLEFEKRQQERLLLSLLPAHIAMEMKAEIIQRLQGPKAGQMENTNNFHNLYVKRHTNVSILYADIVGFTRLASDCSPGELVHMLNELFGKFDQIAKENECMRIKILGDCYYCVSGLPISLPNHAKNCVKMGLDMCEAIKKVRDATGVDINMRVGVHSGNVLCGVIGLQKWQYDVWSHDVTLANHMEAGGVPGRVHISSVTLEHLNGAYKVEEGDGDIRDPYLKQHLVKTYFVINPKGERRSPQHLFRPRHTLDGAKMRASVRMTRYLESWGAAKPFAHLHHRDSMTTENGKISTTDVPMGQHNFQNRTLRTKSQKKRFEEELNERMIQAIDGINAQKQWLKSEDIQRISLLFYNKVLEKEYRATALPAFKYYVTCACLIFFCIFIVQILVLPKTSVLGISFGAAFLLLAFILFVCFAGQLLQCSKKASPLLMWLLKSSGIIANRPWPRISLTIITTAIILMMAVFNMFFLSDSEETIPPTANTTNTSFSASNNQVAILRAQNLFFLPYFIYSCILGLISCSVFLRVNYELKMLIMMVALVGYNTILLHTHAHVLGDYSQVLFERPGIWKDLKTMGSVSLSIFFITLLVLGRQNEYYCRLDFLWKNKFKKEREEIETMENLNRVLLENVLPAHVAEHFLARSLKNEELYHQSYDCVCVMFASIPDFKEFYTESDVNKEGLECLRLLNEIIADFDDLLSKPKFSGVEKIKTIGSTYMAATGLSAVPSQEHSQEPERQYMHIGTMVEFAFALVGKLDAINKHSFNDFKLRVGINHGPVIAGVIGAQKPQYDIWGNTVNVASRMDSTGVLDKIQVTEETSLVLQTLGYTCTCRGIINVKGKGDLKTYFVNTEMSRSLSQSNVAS
Protocol: as §1, §2, §3
Hearts were surgically excised from transgenic mice. Each isolated heart was treated with 3-4 mL of buffer A and cooled to 0 deg C. for 5 minutes. […] Protein concentration was determined using a commercial Bradford assay kit. […]
as §4

T1 sequence (O95622 whole entry): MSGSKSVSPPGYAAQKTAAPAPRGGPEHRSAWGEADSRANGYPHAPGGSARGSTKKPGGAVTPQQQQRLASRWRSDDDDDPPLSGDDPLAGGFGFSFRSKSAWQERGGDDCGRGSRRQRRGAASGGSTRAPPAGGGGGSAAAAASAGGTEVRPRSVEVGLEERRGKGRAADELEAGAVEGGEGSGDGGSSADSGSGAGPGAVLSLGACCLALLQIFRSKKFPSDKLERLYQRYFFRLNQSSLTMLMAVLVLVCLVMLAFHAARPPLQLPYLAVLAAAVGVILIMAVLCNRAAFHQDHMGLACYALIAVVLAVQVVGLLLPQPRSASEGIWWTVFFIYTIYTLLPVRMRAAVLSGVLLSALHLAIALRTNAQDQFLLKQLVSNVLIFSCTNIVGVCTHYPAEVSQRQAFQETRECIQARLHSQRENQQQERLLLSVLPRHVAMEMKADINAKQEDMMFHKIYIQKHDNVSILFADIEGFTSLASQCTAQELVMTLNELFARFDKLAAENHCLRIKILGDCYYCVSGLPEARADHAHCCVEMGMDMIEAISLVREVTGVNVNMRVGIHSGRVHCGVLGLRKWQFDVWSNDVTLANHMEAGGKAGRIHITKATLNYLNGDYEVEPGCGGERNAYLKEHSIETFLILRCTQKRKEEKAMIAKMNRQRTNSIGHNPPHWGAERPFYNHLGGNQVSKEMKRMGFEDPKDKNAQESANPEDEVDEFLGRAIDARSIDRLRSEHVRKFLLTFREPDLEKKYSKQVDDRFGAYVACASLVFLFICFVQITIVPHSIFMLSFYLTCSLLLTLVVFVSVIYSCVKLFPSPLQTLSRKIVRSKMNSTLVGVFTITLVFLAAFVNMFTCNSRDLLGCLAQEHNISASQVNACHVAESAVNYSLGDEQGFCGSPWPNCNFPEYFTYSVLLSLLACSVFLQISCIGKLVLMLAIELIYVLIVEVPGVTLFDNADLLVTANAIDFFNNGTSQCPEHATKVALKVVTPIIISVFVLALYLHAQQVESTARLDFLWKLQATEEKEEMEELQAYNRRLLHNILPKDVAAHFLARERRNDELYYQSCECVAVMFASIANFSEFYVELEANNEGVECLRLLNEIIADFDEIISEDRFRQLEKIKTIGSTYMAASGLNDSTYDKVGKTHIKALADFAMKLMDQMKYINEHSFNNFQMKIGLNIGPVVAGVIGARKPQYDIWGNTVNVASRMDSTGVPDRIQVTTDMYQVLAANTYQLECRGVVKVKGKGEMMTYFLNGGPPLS

| Compound | IC50 (type V adenylyl cyclase) [nM] | further results |
| --- | --- | --- |
| Nc1ncnc2c1ncn2[C@@H]1CC[C@@H](C(=O)NO)C1 [Compound 10, (1R,3R)-3-(6-amino-9H-purin-9-yl)-N-hydroxycyclopentanecarboxamide] | 150 | IC50 (type VI adenylyl cyclase): 250 nM; IC50 [1]: 9630 nM; IC50 [2]: 27000 nM; left ventricle (LV) infarct size [3]: 20% |
| Nc1nccc2c1ncn2[C@@H]1CC[C@@H](C(=O)O)C1 [Compound 10a, (1R,3R)-3-(4-amino-1H-imidazo[4,5-c]pyridin-1-yl)cyclopentanecarboxylic acid] | > 10000 | – |
| Nc1nccc2c1ncn2[C@@H]1CC[C@@H](C(=O)NO)C1 [Compound 10b, (1R,3R)-3-(4-amino-1H-imidazo[4,5-c]pyridin-1-yl)-N-hydroxycyclopentanecarboxamide] | 290 | IC50 [1]: 8500 nM |
| Nc1ncnc2c1ccn2[C@@H]1CC[C@@H](C(=O)O)C1 [Compound 10c, (1R,3R)-3-(4-amino-7H-pyrrolo[2,3-d]pyrimidin-7-yl)cyclopentanecarboxylic acid] | > 100000 | – |
| Nc1ncnc2c1ccn2[C@@H]1CC[C@@H](C(=O)NO)C1 [Compound 10d, (1R,3R)-3-(4-amino-7H-pyrrolo[2,3-d]pyrimidin-7-yl)-N-hydroxycyclopentanecarboxamide] | 980 | – |
| Nc1nccc2c1ccn2[C@@H]1CC[C@@H](C(=O)O)C1 [Compound 10e, (1R,3R)-3-(4-amino-1H-pyrrolo[3,2-c]pyridin-1-yl)cyclopentanecarboxylic acid] | > 10000 | – |
| Nc1ncnc2c1ncn2[C@@H]1C[C@H](CO)[C@@H](C(=O)O)C1 [Compound 10g, (1S,2S,4R)-4-(6-amino-9H-purin-9-yl)-2-(hydroxymethyl)cyclopentanecarboxylic acid] | > 100000 | – |
| Nc1ncnc2c1ncn2[C@@H]1C[C@H](CO)[C@@H](C(=O)NO)C1 [Compound 10h, (1S,2S,4R)-4-(6-amino-9H-purin-9-yl)-N-hydroxy-2-(hydroxymethyl)cyclopentanecarboxamide] | 1900 | IC50 [1]: 18000 nM |
| Nc1ncnc2c1ncn2[C@@H]1C[C@@H](CO)[C@@H](C(=O)NO)C1 [Compound 10i, (1S,2R,4R)-4-(6-amino-9H-purin-9-yl)-N-hydroxy-2-(hydroxymethyl)cyclopentanecarboxamide] | 3100 | – |
| Nc1nc(F)nc2c1ncn2[C@@H]1CC[C@@H](C(=O)NO)C1 [Compound 10j, (1R,3R)-3-(6-amino-2-fluoro-9H-purin-9-yl)-N-hydroxycyclopentanecarboxamide] | 80 | IC50 (type VI adenylyl cyclase): 210 nM; IC50 (type II adenylyl cyclase): 5580 nM; IC50 [1]: 2320 nM; IC50 [2]: 2450 nM |
| Cc1nc(N)c2ncn([C@@H]3CC[C@@H](C(=O)NO)C3)c2n1 [Compound 10k, (1R,3R)-3-(6-amino-2-methyl-9H-purin-9-yl)-N-hydroxycyclopentanecarboxamide] | 4890 | – |
| Nc1nc(C(F)(F)F)nc2c1ncn2[C@@H]1CC[C@@H](C(=O)NO)C1 [Compound 10l, (1R,3R)-3-(6-amino-2-(trifluoromethyl)-9H-purin-9-yl)-N-hydroxycyclopentanecarboxamide] | 6450 | – |
| Nc1nc(N)c2ncn([C@@H]3CC[C@@H](C(=O)NO)C3)c2n1 [Compound 10m, (1R,3R)-3-(2,6-diamino-9H-purin-9-yl)-N-hydroxycyclopentanecarboxamide] | 3500 | – |
| Nc1nc(O)nc2c1ncn2[C@@H]1CC[C@@H](C(=O)NO)C1 [Compound 10n, (1R,3R)-3-(6-amino-2-hydroxy-9H-purin-9-yl)-N-hydroxycyclopentanecarboxamide] | > 300000 | – |
| Cc1nc2c(N)ncnc2n1[C@@H]1CC[C@@H](C(=O)NO)C1 [Compound 10o, (1R,3R)-3-(6-amino-8-methyl-9H-purin-9-yl)-N-hydroxycyclopentanecarboxamide] | > 300000 | – |
| Nc1ncnc2c1nc(C(F)(F)F)n2[C@@H]1CC[C@@H](C(=O)NO)C1 [Compound 10p, (1R,3R)-3-(6-amino-8-(trifluoromethyl)-9H-purin-9-yl)-N-hydroxycyclopentanecarboxamide] | > 300000 | – |
| Nc1ncnc2c1nc(N)n2[C@@H]1CC[C@@H](C(=O)NO)C1 [Compound 10q, (1R,3R)-3-(6,8-diamino-9H-purin-9-yl)-N-hydroxycyclopentanecarboxamide] | > 300000 | – |
| Nc1ncnc2c1nc(O)n2[C@@H]1CC[C@@H](C(=O)NO)C1 [Compound 10r, (1R,3R)-3-(6-amino-8-hydroxy-9H-purin-9-yl)-N-hydroxycyclopentanecarboxamide] | > 300000 | – |
| C[C@H]1C[C@@H](n2cnc3c(N)ncnc32)C[C@@H]1C(=O)NO [Compound 10s, (1S,2S,4R)-4-(6-amino-9H-purin-9-yl)-N-hydroxy-2-methylcyclopentanecarboxamide] | 510 | – |
| C[C@H]1C[C@@H](n2cnc3c(N)nc(F)nc32)C[C@@H]1C(=O)NO [Compound 10t] | 130 | – |
| Nc1nc(F)cc2c1ncn2[C@@H]1CC[C@@H](C(=O)NO)C1 [Compound 10v, (1R,3R)-3-(4-amino-6-fluoro-1H-imidazo[4,5-c]pyridin-1-yl)-N-hydroxycyclopentanecarboxamide] | 30 | IC50 (type VI adenylyl cyclase): 30 nM; IC50 (type II adenylyl cyclase): 1110 nM; IC50 [1]: 1140 nM; IC50 [2]: 1890 nM |
| Nc1ncnc2c1ncn2[C@@H]1O[C@H](CO)[C@@H](O)[C@H]1O [adenosine, Adenosine, reference compound] | – | left ventricle (LV) infarct size [3]: 38% |

— patent US10081633B2, “Adenylyl cyclase inhibitors, pharmaceutical compositions and method of use thereof” (priority 2016, dated 2018)
